Measured values taken from patent US10526322B2, “Inhibitors of kidney-type glutaminase, GLS-1” (CORNELL UNIVERSITY, priority 2014, dated 2020).

What was measured:
GAC = target: T1, GAC (Mus musculus, UniProt D3Z7P3); assay: Real-time GAC enzyme activity assay coupled to glutamate dehydrogenase (NADH fluorescence); assay type: biochemical
T1 construct: (residues 72-603) was cloned into a pET23a vector; His-tag with thrombin cleavage site (N, cleaved yes); made in house
T1 sequence (D3Z7P3 72-603 isoform D3Z7P3-2): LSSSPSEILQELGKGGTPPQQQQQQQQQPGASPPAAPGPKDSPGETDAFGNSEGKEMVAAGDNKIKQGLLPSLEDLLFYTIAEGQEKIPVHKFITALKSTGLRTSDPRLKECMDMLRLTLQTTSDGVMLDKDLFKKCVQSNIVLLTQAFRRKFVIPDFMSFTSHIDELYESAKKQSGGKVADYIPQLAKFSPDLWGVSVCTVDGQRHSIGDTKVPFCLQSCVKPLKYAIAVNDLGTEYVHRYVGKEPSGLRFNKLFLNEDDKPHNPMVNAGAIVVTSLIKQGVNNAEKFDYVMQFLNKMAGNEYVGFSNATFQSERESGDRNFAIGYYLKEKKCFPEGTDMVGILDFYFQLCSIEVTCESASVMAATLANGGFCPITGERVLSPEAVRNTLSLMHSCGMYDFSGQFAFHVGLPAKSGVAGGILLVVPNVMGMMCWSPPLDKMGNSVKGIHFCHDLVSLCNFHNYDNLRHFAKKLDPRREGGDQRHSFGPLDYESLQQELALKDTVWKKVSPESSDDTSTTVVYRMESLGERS
Procedure: A plasmid encoding the mouse kidney-type glutaminase isoform 2 (GAC, GenBank Accession No. NP_001106854.1, which is hereby incorporated by reference in its entirety) (residues 72-603) was cloned into a pET23a vector containing an N-terminal histidine (His)-tag and thrombin cleavage site. The expressed protein was purified using Co^2+ affinity beads (Clontech), followed by His-tag cleavage with human thrombin (Haemetologic Technologies) overnight at 4° C., and subsequently purified by anion exchange (GE healthcare) and gel filtration chromatography. Purified GAC was stored in a high salt-containing buffer (20 mM Tris-HCl pH 8.5, 500 mM NaCl, 1 mM NaN3) at −80° C., following snap freezing in liquid N2 for long term use. Labeling recombinant GAC with small molecule probes was performed by exchanging 1.5 mg of enzyme into 50 mM HEPES, pH 7.2, and 100 mM NaCl (labeling buffer), using a PD10 desalting column (GE healthcare). The enzyme was then incubated with 50 μM (5-fold excess of enzyme) of either AlexaFluor 488 succinimidyl ester or QSY9 succinimidyl ester (Molecular Probes) for 1 hour at 4° C. After 1 hour, the labeling reaction was quenched with 150 mM Tris-HCl, pH 8.5, and unreacted probe was separated from labeled-enzyme using a PD10 desalting column, eluting labeled-GAC back into the high salt-containing buffer. The stoichiometry of labeling was determined using the probe manufacturer's reported molar absorptivity values and instructions. Briefly, the concentration of GAC was determined by first correcting absorbance at 280 nm (Abs280) for each probe, using the reported correction values (0.11 for AlexaFluor 488 and 0.23 for QSY-9) and their absorbance values at their absorbance maxima (495 nm and 562 nm, respectively). The corrected Abs280 was used along with the experimentally determined molar absorptivity of GAC (ε280=38,850 M−1 cm−1). AlexaFluor 488 and QSY-9 probes were quantified using their respective absorbance maxima and the manufacturer's reported molar absorptivity values (ε495=71,000 M−1 cm−1 and ε562=85,000 M−1 cm−1).
Real-time fluorescence monitoring of 968 binding and GAC activity through production of NADH was performed on a Varian Cary Eclipse Fluorometer, whereas small molecule inhibition and binding titrations were performed in a 96-well format in a Tecan Saphire absorbance and fluorescence plate reader. Samples for monitoring real-time binding of 968 to 488-GAC were prepared by adding 10 μL of varying concentrations of 968 prepared in DMSO to an equilibrated 1 mL sample of 10 nM 488-GAC, while observing 488 fluorescence (490 nm excitation/520 nm emission). Similarly, this method was replicated for monitoring real-time binding of 968 to mutant forms of GAC, namely 488-labeled GAC (GD391K) and 488-GAC (D391K, K316E, R459E). Real-time activity assays monitoring 968 binding and NADH production were prepared in 1 mL samples, where 10 units of glutamate dehydrogenase (Sigma) and 2 mM NAD+ (Sigma) were prepared in 50 mM Tris-Acetate, pH 8.5, 0.1 mM EDTA and equilibrated at 20° C. WT GAC (10 nM) was added and allowed to equilibrate 2 minutes before monitoring the fluorescence emission of 488-GAC (490 nm excitation, 520 nm emission) and NADH (340 nm excitation, 490 nm emission). Appropriate dilutions of 968 or BPTES prepared in DMSO were introduced after 30 seconds and allowed to equilibrate for 2 minutes before a 180 μL solution of K2HPO4 and glutamine was added to make a final concentration of 50 mM K2HPO4 and 20 mM glutamine, to initiate GAC activation. The activity of GAC was measured in a coupled assay, by monitoring the NADH produced by glutamate dehydrogenase, which converts the product of the glutaminase-catalyzed reaction, glutamate, to α-ketoglutarate and ammonia by reducing NAD+ to NADH. […]

Dbl-inducible MEFs = assay: Foci forming assay; assay type: cell-based, mouse; conditions: MEFs expressing Dbl, 10 μM 968
Source text: Inducible oncogenic Dbl cell lines were created using the TET-OFF system in mouse embryonic fibroblasts (MEFs) following the manufacturer's instructions (Clontech). Briefly, PCR products for onco-Dbl-containing NotI and XbaI restriction endonuclease sites were cloned in the per2.1 vector using the TOPO-TA cloning kit (Invitrogen) and subsequently subcloned into the p-TREHA vector (Clontech). The pTRE-HA-onco-Dbl was then co-transfected with pMET-Puro in a 20:1 ratio into parental MEFs (Clontech), which contained the transcriptional transactivator (tTa), with Lipofectamine (Invitrogen). Cells were placed under puromycin selection at 48 hours post transfection, and colonies were selected after 2-4 weeks for doxycycline-dependent expression of HA-onco-Dbl using HA.11 antibody (Covance). Cells were maintained in DMEM supplemented with 10% (v/v) Tet system-approved FBS (clontech) and 100 μg/mL G418 (Gibco). To suppress Dbl expression, 1 μg/mL doxycycline was added to the medium every 2 days. Cells were induced by re-plating in doxycycline-free medium where residual doxycycline was removed by replacing the medium 3 hours after plating. Immunofluorescence was conducted on cells grown 48-72 hours on glass cover slips and fixed with 3.7% formaldehyde. […] Digital images were collected using a Zeiss fluorescence microscope and AxioVision 3.1 software. […]

Row | inhibition of enzyme activity (GAC; GAC pre-incubated with 968 before adding phosphate) | SMILES | Dbl-induced focus formation (Dbl-inducible MEFs) | concentration inhibiting the GAC isoform compared with parent compound 968 (GAC; in vitro inhibition, FIG. 9 / FIG. 11)
1 | strongly inhibited | CN(C)c1ccc(C2Nc3ccc4ccccc4c3C3=C2C(=O)CC(C)(C)C3)cc1Br (stereo not drawn) [Compound 968] | blocked | 
2 |  | CC1(C)CC(=O)C2=C(C1)c1c(ccc3cc4ccccc4cc13)NC2c1ccc(N=[N+]=[N-])cc1 (stereo not drawn) [SU-22] |  | lower concentration than the parent compound, 968
